According to ChEMBL document CHEMBL1201862, “PubChem BioAssay data set” (2004):
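Values below derive from 48-hour exposures of cells grown in 96-well plates, with endpoints linearly interpolated between the two concentrations bracketing the appropriate inhibition level. At the GI50, growth is halved.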 Active and inactive are the calls of the source. No stated cut-off is given here; in the data, active = GI50 up to about 1.1 µM and inactive = higher.

How the values were obtained:
Experiment in all cases: NCI anticancer screen, dose series, 48 h
[1] = system: ACHN
[2] = system: MDA-N
[3] = system: BT-549
[4] = system: NCI-H522
[5] = system: HOP-62
[6] = system: NCI/ADR-RES
[7] = system: CAKI-1
[8] = system: HCT-116
[9] = system: M14
[10] = system: NCI-H226
[11] = system: MCF7
[12] = system: A498
[13] = system: DU-145
[14] = system: SF-295
[15] = system: IGROV-1
[16] = system: NCI-H460
[17] = system: SR

Measured: GI50

C=CCCC(On1c(-c2ccc(Cl)cc2)csc1=S)c1ccccc1 (stereo unspecified)
inactive: [1] 83.6 µM | [2] 3.36 µM | [3] 58.3 µM | [4] 12.4 µM | [5] 90.6 µM | [6] 13.7 µM | [7] > 100 µM | [8] 7.03 µM | [9] 13.9 µM | [10] 26.7 µM | [11] 16.7 µM | [12] > 100 µM | [13] 49.4 µM | [14] 13.9 µM | [15] 20.2 µM

O=Nn1c2ccccc2c2cc([N+](=O)[O-])ccc21
inactive: [1] 14.1 µM | [2] 17.2 µM | [3] 17.2 µM | [4] 10.9 µM | [5] 12.3 µM | [6] 20.2 µM | [7] 16.4 µM | [16] 18 µM | [8] 13.9 µM | [9] 20 µM | [11] 22.9 µM | [12] 12.4 µM | [13] 14.3 µM | [14] 15.2 µM | [15] 15.7 µM

Cc1cccc(C)c1NC(=O)/C(CC(=O)CC(c1ccccc1)c1c(O)c2ccccc2oc1=O)=N/O (stereo unspecified)
inactive: [1] > 100 µM | [2] > 100 µM | [3] > 100 µM | [4] > 100 µM | [5] > 100 µM | [6] > 100 µM | [7] > 100 µM | [16] > 100 µM | [8] > 100 µM | [9] > 100 µM | [10] > 100 µM | [11] > 100 µM | [13] > 100 µM | [14] > 100 µM | [15] > 100 µM

CC1(C)OCC(CO)(CO)CO1
inactive: [1] > 100 µM | [2] > 100 µM | [4] > 100 µM | [6] > 100 µM | [16] > 100 µM | [8] > 100 µM | [9] > 100 µM | [10] > 100 µM | [17] > 100 µM | [11] > 100 µM | [12] 14 µM | [13] > 100 µM | [14] > 100 µM

CCOC(=O)Cc1cnc(NC(NC(=O)CC)(C(F)(F)F)C(F)(F)F)s1
inactive: [1] > 100 µM | [2] > 100 µM | [3] > 100 µM | [4] > 100 µM | [5] > 100 µM | [16] > 100 µM | [8] > 100 µM | [9] > 100 µM | [10] > 100 µM | [17] > 100 µM | [11] > 100 µM | [12] > 100 µM | [13] > 100 µM
